Data published in patent publication US11279733B2, “Peptide antibiotics” (priority 2017, dated 2022).
≈ marks a conversion by molar mass, not a printed value. Read-outs that look alike come from different tables or passages of the source. Positions of bridges follow the written chain, without caps; N, C: chain ends. Non-standard residues stand in square brackets, D forms with d. Residues, ends and D or L forms follow the SMILES beside them. *: point of attachment. Decanoyl(3R-OH) = CCCCCCC[C@@H](O)CC(=O)*; dDab = NCC[C@@H](N)C(=O)O; Dab = NCC[C@H](N)C(=O)O

Key:
A. baumannii ATCC 19606 = conditions: ATCC 19606
In short: (§1)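 Mid-log cultures grown in Mueller Hinton broth at 37° C were tested by 2-fold broth microdilution at 5×10^5 CFU/mL final. Compounds were dissolved in water and tested over a final range of 32 to 0.015 μg/mL.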

A. baumannii GN_093 PmxR = conditions: GN 093 PmxR
In short: as §1

E. coli ATCC 25922 = conditions: ATCC 25922
In short: as §1

K. pneumoniae ATCC 13883 = conditions: ATCC 13883
In short: as §1

[1] = system: K. pneumoniae ATCC 700603, MDR; conditions: ATCC 700603
In short: as §1

[2] = system: K. pneumoniae ATCC BAA-2146, NDM-1 pos; conditions: ATCC BAA-2146
In short: as §1

[3] = system: K. pneumoniae GN_102 PmxR; conditions: GN 102 PmxR
In short: as §1

[4] = system: K. pneumoniae GN_106, PmxR; conditions: GN 106, PmxR
In short: as §1

P. aeruginosa ATCC 27853 = conditions: ATCC 27853
In short: as §1

[5] = system: P. aeruginosa GN_043, PmxR
In short: as §1

[6] = system: P. aeruginosa GN_105, PmxR; conditions: GN 105, PmxR
In short: as §1

[7] = system: S. aureus ATCC 25923, MSSA; conditions: ATCC 25923
In short: as §1

[8] = In vitro nephrotoxicity, LDH release from primary human kidney cells; format: cell-based; conditions: pH 7.4
Source text: (§2) hPT cells were derived from whole human kidneys procured by the International Institute for the Advancement of Medicine (Edison, N.J., USA). All tissue was scored by a pathologist as normal (i.e., derived from non-cancerous, non-diseased tissue). Cell isolation procedures were based on those originally described by Todd et al. (1996) and modified (Cummings and Lash, 2000; Cummings et al., 2000) with use of sterile conditions (i.e., all instruments and glassware were autoclaved and all buffers were filtered through a 0.2-μm pore-size filter). Renal cortex and outer stripe were cut into slices, washed with sterile PBS, minced, and the pieces were placed in a trypsinization flask filled with 300 ml of sterile, filtered Hanks' buffer, containing 25 mM NaHCO3, 25 mM HEPES, pH 7.4, 0.5 mM EGTA, 0.2% (w/v) bovine serum albumin, 50 μg/ml gentamicin, 1.3 mg/mL collagenase, and 0.59 mg/ml CaCl2), which was filtered prior to use. Whole kidneys were perfused with Wisconsin medium and kept on ice until they arrived at the laboratory, which was usually within 24 h of removal from the donor.
(§3) All buffers were continuously bubbled with 95% O2/5% CO2 and were maintained at 37° C. Minced cortical pieces from whole kidneys were subjected to collagenase digestion for 60 min, after which the supernatant was filtered through a 70-μm mesh filter to remove tissue fragments, centrifuged at 150×g for 7 min, and the pellet resuspended in Dulbecco's Modified Eagle's Medium: Ham's F12 Medium (DMEM/F12; 1/1). Approximately 5 to 7×10^6 cells were obtained per 1 g of human kidney cortical tissue.
(§4) hPT cells were resuspended in 2 mL of DMEM/F12 and diluted to 500 mL with cell culture medium, which was serum-free and hormonally-defined. Composition of this supplemented medium was based on earlier work establishing optimal conditions for primary culture of rat PT cells (Lash et al., 1995). Basal medium was a 1:1 mixture of DMEM/F12. […] Cells were seeded in a volume of 0.5 ml at a density of 50-100 μg protein per cm^2 (0.5-1.0×10^6 cells/ml) on 24-well plates. Cultures were grown at 37° C. in a humidified incubator under an atmosphere of 95% air/5% CO2 at pH 7.4. Cultures were grown to approximately 80%-90% confluence (generally 5-6 days) prior to experiments. Cells were harvested by either scraping the flasks with a Teflon scraper or by brief incubation with Cellstripper (Cellgro, Herndon, Va., USA) (in Ca^2+- and Mg^2+-free Hanks' buffer).

[9] = In vitro nephrotoxicity, GGT release from primary human kidney cells; format: cell-based; conditions: pH 7.4
Source text: as §2, §3, §4
Release of gamm-glutanyltransferase was assessed according to Orlowski, M., Meister, A. 1963. γ-Glutamyl-p-nitroanilide: A new convenient substrate for determination and study of L- and D-γ-glutamyltranspeptidase activities (Biochim. Biophys. Acta 73: 679-681.)
A 2.5 mM substrate Solution was prepared from 67 mg γ-glutamyl-p-nitroanilide+264 mg glycylglycine in 100 mL of 0.05 M Tris, pH 8.2 (50 mM Tris, pH 8.2: 605 mg Tris/HCl per 100 mL).
For the assay in 96-well plates, 6-μL of sample and 0.3 mL substrate solution were added to each well. The absorbance was measured at 410 nm for the appearance of product, p-nitroanilide (molar extinction=8800 M^−1 cm^−1).

in vitro [10] = conditions: human
In short: (§5)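 Cells (4000/well, pre-attached 24 h) then received 5 μM resazurin for 2 h, with fluorescence measured at ex 560/em 590.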

in vitro [11] = conditions: human; remark: listed apart in the source
In short: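 HK2 cells were seeded at 2000 per well in DMEM/F12 with 10% FBS and left to attach for 24 h at 37 °C, 5% CO2. They were then exposed for 24 h to 3-fold peptide dilutions starting from 600 μM solutions in quadruplicate. LDH release was read at 450 nm, and CC50 was fitted from dose-response curves.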

in vitro [12] = conditions: human; remark: listed apart in the source
In short: as §5

| SMILES | MIC, A. baumannii ATCC 19606 (A. baumannii ATCC 19606) [mg/L] | MIC, E. coli ATCC 25922 (E. coli ATCC 25922) [mg/L] | MIC, K. pneumoniae ATCC 13883 (K. pneumoniae ATCC 13883) [mg/L] | MIC, K. pneumoniae ATCC 700603, MDR [1] [mg/L] | MIC, K. pneumoniae ATCC BAA-2146, NDM-1 pos [2] [mg/L] | MIC, P. aeruginosa ATCC 27853 (P. aeruginosa ATCC 27853) [mg/L] | CC50 [8] [mg/L] | CC50 [9] [mg/L] | MIC A. baumannii GN_093 PmxR (A. baumannii GN_093 PmxR) [mg/L] | MIC K. pneumoniae GN_102 PmxR [3] [mg/L] | MIC K. pneumoniae GN_106, PmxR [4] [mg/L] | MIC P. aeruginosa GN_105, PmxR [6] [mg/L] | other results |
| --- | --- | --- | --- | --- | --- | --- | --- | --- | --- | --- | --- | --- | --- |
| CCCCCCC[C@@H](O)CC(=O)N[C@H](CCN)C(=O)N[C@H]1CCNC(=O)[C@H](CC(C)C)NC(=O)[C@H](CCN)NC(=O)[C@H](CCNC(=O)[C@@H](N)CCCNC(=N)N)NC(=O)[C@H](CC(C)C)NC(=O)[C@@H](Cc2ccccc2)NC(=O)[C@H](CCN)NC1=O [compound 6654, 3(R)OH-nC9CO-D-Dab-cyc[L-Dab-L-Dab-D-Phe-L-Leu-L-Dab(L-Arg)-L-Dab-L-Leu]] ({Decanoyl(3R-OH)}-[dDab][Dab][Dab][dF]L[Dab](Arg)[Dab]L; lactam 2-C) | 8 (≈ 6.66 µM) | 4 (≈ 3.33 µM) | 4 (≈ 3.33 µM) | 4 (≈ 3.33 µM) | 8 (≈ 6.66 µM) | 4 (≈ 3.33 µM) | > 128 | > 128 | – | – | – | – | MIC, A. baumannii Cl Ptyela 10073 4512:2, PmxR (A. baumannii GN_093 PmxR): 8 mg/L (≈ 6.66 µM); MIC, K. pneumoniae Cl Koprana 10065 0661:1, PmxR [3]: 8 mg/L (≈ 6.66 µM); MIC, K. pneumoniae Cl 138-16347-20362, PmxR [4]: 16 mg/L (≈ 13.3 µM); MIC, P. aeruginosa FADDI-PA070, PmxR ([5]; Table 5, polymyxin-resistant): 2 mg/L (≈ 1.67 µM); MIC, P. aeruginosa PA9704, PmxR [6]: 2 mg/L (≈ 1.67 µM); MIC, S. Aureus ATCC 25923, MSSA [7]: 16 mg/L (≈ 13.3 µM) |
| CCCCCCC[C@@H](O)CC(=O)N[C@@H](CCN)C(=O)N[C@H]1CCNC(=O)[C@H](CC(C)C)NC(=O)[C@H](CCN)NC(=O)[C@H](CCN)NC(=O)[C@H](CC(C)C)NC(=O)[C@@H](Cc2ccccc2)NC(=O)[C@H](CCN)NC1=O [compound 8638, 3(R)OH-nC9CO-L-Dab-cyc[L-Dab-L-DAB-D-Phe-L-Leu-L-Dab-L-Dab-L-Leu]] ({Decanoyl(3R-OH)}-[Dab][Dab][Dab][dF]L[Dab][Dab]L; lactam 2-C) | 32 (≈ 30.6 µM) | 2 (≈ 1.92 µM) | 4 (≈ 3.83 µM) | 8 (≈ 7.66 µM) | 8 (≈ 7.66 µM) | 1 (≈ 0.958 µM) | > 128 | > 128 | 32 (≈ 30.6 µM) | 4 (≈ 3.83 µM) | 4 (≈ 3.83 µM) | 2 (≈ 1.92 µM) | MIC P. aeruginosa GN_043, PmxR ([5]; Table 6, polymyxin-resistant): 8 mg/L (≈ 7.66 µM); MIC, S. aureus ATCC 25923, MSSA [7]: 16 mg/L (≈ 15.3 µM) |
| CCCCCCC[C@@H](O)CC(=O)N[C@H](CCN)C(=O)N[C@H]1CCNC(=O)[C@H](CC(C)C)NC(=O)[C@H](CCN)NC(=O)[C@H](CCN)NC(=O)[C@H](CC(C)C)NC(=O)[C@@H](Cc2ccccc2)NC(=O)[C@H](CCN)NC1=O [Octapeptin C4, octapeptin C4, reference compound] ({Decanoyl(3R-OH)}-[dDab][Dab][Dab][dF]L[Dab][Dab]L; lactam 2-C) | – | – | – | – | – | – | 62 (≈ 59.4 µM) | > 128 | – | – | – | – | – |
| CCCCCCC[C@@H](O)CC(=O)N[C@@H](CCN)C(=O)N[C@@H]1CCNC(=O)[C@H](CC(C)C)NC(=O)[C@H](CCN)NC(=O)[C@H](CCN)NC(=O)[C@H](C)NC(=O)[C@@H](Cc2ccccc2)NC(=O)[C@H](CCN)NC1=O [compound 6660, 3(R)OH-nC9CO-L-Dab-cyc[D-Dab-L-Dab-D-Phe-L-Ala-L-Dab-L-Dab-L-Leu]] ({Decanoyl(3R-OH)}-[Dab][dDab][Dab][dF]A[Dab][Dab]L; lactam 2-C) | – | – | – | – | – | – | – | – | >32 | >32 | >32 | >32 | MIC A. baumannii ATCC 19606 (A. baumannii ATCC 19606): >32 mg/L; MIC E. coli ATCC 25922 (E. coli ATCC 25922): >32 mg/L; MIC K. pneumoniae ATCC 13883 (K. pneumoniae ATCC 13883): >32 mg/L; MIC K. pneumoniae ATCC 700603, MDR [1]: >32 mg/L; MIC K. pneumoniae ATCC BAA-2146, NDM-1 pos [2]: >32 mg/L; MIC P. aeruginosa ATCC 27853 (P. aeruginosa ATCC 27853): >32 mg/L; MIC P. aeruginosa GN_043, PmxR ([5]; P. aeruginosa GN_043, PmxR): >32 mg/L; MIC S. aureus ATCC 25923, MSSA [7]: >32 mg/L; CC50 at 24 h (in vitro [10]): > 300 µM; CC50 at 24 h (in vitro [11]): > 300 µM; CC50 at 24 h (in vitro [12]): > 300 µM |
